We go through three compounds from patent US11078191B2, “1-(4-amino-5-bromo-6-(1H-pyrazol-1-yl)pyrimidin-2-yl)-1H-pyrazol-4-ol and use thereof in the treatment of cancer” (Novartis AG, priority 2017, dated 2021).

Where two headings read alike, the source gives them in different places. Marks after values point to notes of the source that are not given here.

For data set [1] the following is noted: male, Sprague Dawley, rat, microsomes. The protocol:
(§1) The final organic content in liver microsomal incubations was 0.5%.
Liver microsomal protein (25 uL for 0.5 mg/mL; 15 uL for 0.3 mg/mL), NADPH (100 uL, 2 mM final concentration) and phosphate buffer (870 uL for 0.5 mg/mL; 880 uL for 0.3 mg/mL) were incubated in a microfuge tube in an orbital shaker incubator for 10 min maintained at 37° C. Reactions were initiated by spiking 5 uL of 2 mM and 0.2 mM 5-bromo-2,6-di(1H-pyrazol-1-yl)pyrimindin-4-amine([…]; […]; 0.5% final DMSO concentration) and samples incubated at 37° C. Aliquots (200 uL) were withdrawn from the reaction tube at 0, 60 and 120 minutes and the reaction was quenched by addition of 100 uL acetonitrile. Reactions were performed in duplicates. The quenched samples were centrifuged at 14000 rpm (approximately 21000 g) for 10 minutes(Eppendorf Centrifuge 5810 R) and supernatant was analyzed by LCMS/MS.
(§2) Control incubations (no NADPH added) and blank incubations (no test item added) were performed in singlet for each species. These samples were withdrawn at 0 and 120 min and quenched using acetonitrile. The supernatant was analyzed for any non microsomal degradation and matrix interference. […] Reaction and control experiments were performed in singlet.

The procedure of data set [2]:
as §1
Liver microsomal protein (25 uL for 0.5 mg/mL; 15 uL for 0.3 mg/mL), NADPH (100 uL, 2 mM final concentration) and phosphate buffer (870 uL for 0.5 mg/mL; 880 uL for 0.3 mg/mL) were incubated in a microfuge tube in an orbital shaker incubator for 10 min maintained at 37° C. Reactions were initiated by spiking 5 uL of 2 mM and 0.2 mM 5-bromo-2,6-di(1H-pyrazol-1-yl)pyrimindin-4-amine(10 uM final concentrations for 0.5 mg/mL protein; 1 uM final concentration for 0.3 mg/mL protein; 0.5% final DMSO concentration) and samples incubated at 37° C. Aliquots (200 uL) were withdrawn from the reaction tube at 0, 60 and 120 minutes and the reaction was quenched by addition of 100 uL acetonitrile. Reactions were performed in duplicates. The quenched samples were centrifuged at 14000 rpm (approximately 21000 g) for 10 minutes(Eppendorf Centrifuge 5810 R) and supernatant was analyzed by LCMS/MS.
as §2

Data set [3] can be described thus: Mass balance determination in human liver microsomes (MRM analysis). It is filed as in vitro ADME. As to the method: (§3) Reactions were performed in duplicates.
An aliquot (25 uL) of these samples were further diluted with 100 uL of internal standard (Haloperidol, 1 ug|mL in acetonitrile).
The incubation samples were also prepared similar to that of the calibration standards by adding 25 uL of the quenched sample with 100 uL of internal standard.
A general note: Microsomes from liver hold many membrane-bound enzymes, among them those of drug oxidation.

Data set [4] in a line: Liver microsomal incubations compared across tested species. It is filed as in vitro ADME, rat, dog, human. The protocol: as §3
(§4) Reaction and control experiments were performed in singlet.

The target of data set [5] is T1, human adenosine A2A receptor (Homo sapiens, UniProt P29274).
T1 construct: purchased Perkin Elmer RBHA2AM400UA; host or cells: HEK-293 cells stably expressing the receptor (membrane preparation)
The experiment in a line: In vitro hA2A radioligand binding assay. The conditions noted are these: [3H]-ZM241385 competition, HEK-293 membranes; Ki from IC50 by Cheng-Prusoff.

Data set [6] is classed as in vitro ADME. The conditions noted are these: for Percentage area ratio with respect to parent (10 uM): 0 min. The protocol:
• ACN: acetonitrile • CC: calibration curve • IS: internal standard • DMSO: dimethylsulfoxide • MRM: multiple reaction monitoring • […]: nicotinamide adenine dinucleotide phosphate (reduced) • Rpm: revolution per minute Liver Microsomes • Rat liver microsomes (male, pooled, Sprague Dawley) • Source: XenoTech, LLC (Kansas, USA) • Protein content: 20 mg/mL • Catalogue number: R I 000, Lot number: 0710623 • Dog liver microsomes (male, pooled, Beagle) • Source: XenoTech, LLC (Kansas, USA) • Protein content: 20 mg|mL • Catalogue number: D I 000, Lot number: 0810143 • Human liver microsomes (mixed gender, pooled) • Source: XenoTech, LLC (Kansas, USA) • Protein content: 20 mg|mL • Catalogue number: H061 0, Lot number: 101042 Stock Solutions and Reagents Test Item
as §3, §4
Samples were processed using protein precipitation method and then analyzed by employing linear gradient with a run time of 28 min in HPLC coupled with tandem mass spectrometry (API 4000 mass spectrometer). Each sample was injected and scanned separately for Q1 (MH+/MH−) and MS/MS.
The different possible metabolite peaks were identified in Q1 scan after assessing for matrix interference using test item free blank samples, and were confirmed from the fragmentation pattern (MSIMS scan).
An alternate analytical method was also developed to increase the retention times and to assess other metabolites apart from the identified M-1 metabolite. Aqueous solutions of 1-(6-amino-5-bromo-2-(1H-pyrazol-1-yl)pyrimidin-4-yl)-1H-pyrazol-4-ol and 1-(4-amino-5-bromo-6-(1H-pyrazol-1-yl)pyrimidin-2-yl)-1H-pyrazol-4-ol (1 uM) were co-chromatographed with the in vitro incubated samples employing modified analytical method to confirm the identity.

[7] abbreviates: human liver microsomes, parent 10 uM, 0 min, Set-1.
[8] abbreviates: human liver microsomes, parent 10 uM, 0 min, Set-2.
Setting [9] is: human liver microsomes, parent 10 uM, 30 min, Set-1.
[10] abbreviates: human liver microsomes, parent 10 uM, 30 min, Set-2.
Where [11] appears, read: human liver microsomes, parent 10 uM, 60 min, Set-1.
Where [12] appears, read: human liver microsomes, parent 10 uM, 60 min, Set-2.

T1 sequence (P29274 whole entry): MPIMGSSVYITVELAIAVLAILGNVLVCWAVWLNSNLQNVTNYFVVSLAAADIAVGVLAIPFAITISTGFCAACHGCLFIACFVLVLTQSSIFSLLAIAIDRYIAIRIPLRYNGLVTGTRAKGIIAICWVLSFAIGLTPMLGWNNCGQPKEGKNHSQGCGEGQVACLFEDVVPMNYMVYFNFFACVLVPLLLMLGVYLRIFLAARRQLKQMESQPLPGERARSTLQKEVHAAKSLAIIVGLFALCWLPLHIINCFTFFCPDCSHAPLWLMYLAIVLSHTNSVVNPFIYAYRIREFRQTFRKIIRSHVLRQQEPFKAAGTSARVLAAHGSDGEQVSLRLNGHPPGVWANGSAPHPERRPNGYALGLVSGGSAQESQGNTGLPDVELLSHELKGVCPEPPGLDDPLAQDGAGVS

`O=C(O)Cc1ccccc1Nc1c(Cl)cccc1Cl` [Diclofenac]: the “% remaining” value in data set [1] (0 h, 0.5 uM) came to 100%; in data set [1] (1 h, 0.5 uM), 12%; in data set [2] (both, human, microsomes, 0 h, 0.5 uM), 100%; in data set [2] (both, human, microsomes, 1 h, 0.5 uM), 100%.
As usually defined, the Ki is the dissociation constant of the complex between target and ligand, obtained from inhibition or displacement. High values mean a looser hold on the target, low ones a stronger hold on the target. Regarding `Nc1nc(-n2cc(O)cn2)nc(-n2cccn2)c1Br` [Example 1, 1-(4-amino-5-bromo-6-(1H-pyrazol-1-yl)pyrimidin-2-yl)-1H-pyrazol-4-ol], the “percentage of M-I metabolite in human liver microsomes” value in data set [3] (after 60 minutes of incubation with parent, % of the parent) is on record as 15-20%. Moreover, the “% M-I detected” value in data set [3] (setting [7]) stood at 0%; in data set [3] (setting [8]), 0%; in data set [3] (setting [9]), 10.95%; in data set [3] (setting [10]) it was 7.97%; in data set [3] (setting [11]), 18.93%; in data set [3] (setting [12]), 15.08%. Also, the “M-I Concentration” value in data set [3] (setting [7]) came out at 0 µM; in data set [3] (setting [8]) it was 0 µM; in data set [3] (setting [9]), 1.29 µM; in data set [3] (setting [10]), 0.92 µM; in data set [3] (setting [11]), 2.23 µM; in data set [3] (setting [12]) it was 1.74 µM. Further, the “percentage of metabolite with respect to parent” value in data set [4] (rat, dog and human liver microsomes, assumes equal ionization efficiency) is “uniformly low”. The affinity in data set [5], expressed as Ki, was 50 nM. The “Percentage area ratio with respect to parent (10 uM)” value in data set [6] (male, Beagle, dog) was 0.01%.
For the compound `Nc1nc(-n2cccn2)nc(-n2cccn2)c1Br` [Parent, 5-bromo-2,6-di(1H-pyrazol-1-yl)pyrimindin-4-amine], the “% remaining” value was determined as 100% in data set [1] (0 h, 1 uM); 100% in data set [2] (both, human, microsomes, 0 h, 1 uM); 100% in data set [2] (male, Beagle, dog, microsomes, 0 h, 1 uM). In addition, the “% parent Remaining” value is 100% in data set [3] (setting [7]); 96.26% in data set [3] (setting [9]); 88% in data set [3] (setting [11]); 100% in data set [3] (human, microsomes, 0 h, 10 uM); 87.44% in data set [3] (human, microsomes, 0.5 h, 10 uM); 79.55% in data set [3] (human, microsomes, 1 h, 10 uM). Also, the “Parent Concentration” value in data set [3] (setting [7]) is 11.78^a uM; in data set [3] (setting [9]) it was 11.34^a uM; in data set [3] (setting [11]) it was 10.47^a uM; in data set [3] (human, 0 min, 10 uM), 11.54^a uM; in data set [3] (human, 30 min, 10 uM) it was 10.09^a uM; in data set [3] (human, 60 min, 10 uM) it was 9.18 µM. Also, the Mass balance in data set [3] (setting [9]) turned out to be 107.22%; in data set [3] (setting [11]) it was 107.81%; in data set [3] (human, 30 min, 10 uM) it was 95.41%; in data set [3] (human, 60 min, 10 uM), 94.63%. Further, in data set [3] (text summary of Table 7), the “mass balance for the metabolism in human liver microsomes” value is given as 95 to 107%. Further, the “relative metabolism across tested species” value in data set [4] (1 uM, 0.3 mg/mL microsomal protein, DLM, HLM, RLM = dog, human, rat liver microsomes) is reported as “DLM>HLM>RLM”. Besides, the “stability in control incubations (no NADPH added)” value in data set [4] (liver microsomes, indicating no non-CYP mediated metabolism) is “stable up to 120 min”. Also, the “% metabolism of parent at 120 min” value was found to be 76% in data set [2] (both, human, 1 uM); 78% in data set [2] (human, 1 uM); 83% in data set [2] (male, Beagle, dog, 1 uM); 0% in data set [6] (male, Sprague Dawley, rat, 120 min, 10 uM). Moreover, the “Concentration of Analyte metabolized” value worked out at 0.83 µM in data set [2] (male, Beagle, dog, microsomes, 2 h, 1 uM) and 0 µM in data set [6] (male, Sprague Dawley, rat, microsomes, 2 h, 10 uM). Besides, the “Percentage area ratio with respect to parent (10 uM)” value in data set [6] (both, human) was 100%; in data set [6] (male, Beagle, dog), 100%; in data set [6] (male, Sprague Dawley, rat) it was 100%.
